Laboratory results reported in paper PMC11247499, “2,8-Disubstituted-1,5-naphthyridines as Dual Inhibitors of Plasmodium falciparum Phosphatidylinositol-4-kinase and Hemozoin Formation with In Vivo Efficacy” (Journal of Medicinal Chemistry, 2024).
Converted amounts (≈) assume the structure as drawn. “And” between values parts separate entries of the source, which are not always exact repeats. Equal values may be shown once.

What was measured:
[1] = test system: β-hematin (βH) formation; experiment: NP-40 mediated cell-free β-hematin assay; conditions: read-out: β-hematin IC50; cell-free NP-40 detergent-mediated assay; n = 2
[2] = Solubility, miniaturized shake flask method; conditions: aqueous solution
[3] = test system: multidrug-resistant strain, K1; experiment: Antiplasmodial activity, parasite lactate dehydrogenase assay, K1; format: cell-based, Plasmodium falciparum; conditions: Plasmodium falciparum, K1, 72 h, parasite lactate dehydrogenase assay over 72 h; read-out: Pf IC50 ± SD K1
[4] = biological target: PvPI4K (Plasmodium vivax, UniProt A5KB26); experiment: biochemical; conditions: purified recombinant PvPI4K, 10 μM ATP, ADP-Glo; mean of N ≥ 2; read-out: PvPI4K IC50 ± SD
[5] = test system: Chinese Hamster Ovary (CHO) cell line; experiment: cells; format: cell-based; conditions: Cricetulus griseus, CHO; MTT assay over 48h; read-out: CHO IC50
[6] = test system: P. falciparum NF54 strain; experiment: Antiplasmodial activity, parasite lactate dehydrogenase assay, NF54; format: cell-based, Plasmodium falciparum; conditions: Plasmodium falciparum, NF54, 72 h, parasite lactate dehydrogenase assay over 72 h; read-out: Pf IC50 ± SD NF54

Sequence of PvPI4K (A5KB26 entry or part of it): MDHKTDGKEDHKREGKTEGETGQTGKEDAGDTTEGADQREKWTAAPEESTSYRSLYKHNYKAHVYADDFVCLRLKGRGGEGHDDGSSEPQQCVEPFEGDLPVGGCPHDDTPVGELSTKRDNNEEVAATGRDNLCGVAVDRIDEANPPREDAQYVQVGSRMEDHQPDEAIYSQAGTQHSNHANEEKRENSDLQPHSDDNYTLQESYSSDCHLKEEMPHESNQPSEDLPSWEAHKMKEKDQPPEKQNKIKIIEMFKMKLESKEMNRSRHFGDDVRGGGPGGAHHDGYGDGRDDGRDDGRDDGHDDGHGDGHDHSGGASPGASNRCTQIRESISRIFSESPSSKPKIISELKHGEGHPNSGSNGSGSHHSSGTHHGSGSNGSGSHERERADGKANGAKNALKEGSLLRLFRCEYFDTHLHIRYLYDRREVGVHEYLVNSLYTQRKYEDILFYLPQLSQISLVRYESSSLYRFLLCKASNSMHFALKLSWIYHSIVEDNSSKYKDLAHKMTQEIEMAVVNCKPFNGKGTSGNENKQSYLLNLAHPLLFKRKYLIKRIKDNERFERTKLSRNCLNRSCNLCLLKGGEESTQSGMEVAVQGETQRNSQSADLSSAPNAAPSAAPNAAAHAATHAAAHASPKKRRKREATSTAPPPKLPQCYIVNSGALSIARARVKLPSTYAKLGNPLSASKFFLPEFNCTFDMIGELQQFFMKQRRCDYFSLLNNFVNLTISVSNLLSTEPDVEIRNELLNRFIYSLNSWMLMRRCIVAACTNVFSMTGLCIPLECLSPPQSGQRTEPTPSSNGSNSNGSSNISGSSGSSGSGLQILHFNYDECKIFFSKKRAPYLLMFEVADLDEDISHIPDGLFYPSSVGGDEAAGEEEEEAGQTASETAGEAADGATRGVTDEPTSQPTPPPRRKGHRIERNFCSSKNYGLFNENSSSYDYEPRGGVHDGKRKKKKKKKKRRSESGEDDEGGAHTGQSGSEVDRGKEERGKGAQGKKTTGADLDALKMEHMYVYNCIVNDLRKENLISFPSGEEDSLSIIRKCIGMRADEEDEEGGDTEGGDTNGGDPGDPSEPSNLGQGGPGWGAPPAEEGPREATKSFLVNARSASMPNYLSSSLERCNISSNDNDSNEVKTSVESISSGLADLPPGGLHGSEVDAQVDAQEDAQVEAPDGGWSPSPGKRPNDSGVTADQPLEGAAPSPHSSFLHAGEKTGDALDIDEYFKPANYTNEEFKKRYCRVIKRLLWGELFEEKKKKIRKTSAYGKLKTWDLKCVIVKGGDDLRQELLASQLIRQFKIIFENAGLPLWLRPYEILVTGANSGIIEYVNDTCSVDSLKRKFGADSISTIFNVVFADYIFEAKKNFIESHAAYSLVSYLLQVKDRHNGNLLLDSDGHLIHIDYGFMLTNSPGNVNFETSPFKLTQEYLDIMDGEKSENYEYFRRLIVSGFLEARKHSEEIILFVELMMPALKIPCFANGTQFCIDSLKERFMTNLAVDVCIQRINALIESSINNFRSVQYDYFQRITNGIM

Compound `CN1CCC(Nc2ccnc3ccc(-c4ccc(C#N)nc4)nc23)CC1` [Compound 32, 5-[8-[(1-Methylpiperidin-4-yl)amino]-1,5-naphthyridin-2-yl]pyridine-2-carbonitrile] has an IC50 [1] of 51 ± 2 µM, a solubility at 20 h [2] of 200 µM (≈ 68.9 µg/mL) and an IC50 [3] of 0.73 ± 0.053 µM. For the same compound, the IC50 [4] was 0.676 ± 0.023 µM, the IC50 [5] was over 50 µM and the IC50 [6] was 0.16 ± 0.04 µM.
For `CN1CCC(Nc2ccnc3ccc(-c4ccc(OCCCO)nc4)nc23)CC1` [Compound 35, 3-[5-[8-[(1-Methylpiperidin-4-yl)amino]-1,5-naphthyridin-2-yl]pyridin-2-yl]oxypropan-1-ol], the IC50 [1] was over 200 µM, the solubility at 20 h [2] was 200 µM (≈ 78.7 µg/mL) and the IC50 [3] was 0.462 ± 0.052 µM. It also gave an IC50 [4] of 0.019 ± 0.012 µM, an IC50 [5] of over 50 µM and an IC50 [6] of 0.203 ± 0.006 µM.
Work on `CC1CNCCC1Nc1ccnc2ccc(-c3ccc(C(F)(F)F)nc3)nc12` (centres unmarked) [Compound 24, N-(3-Methylpiperidin-4-yl)-6-[6-(trifluoromethyl)pyridin-3-yl]-1,5-naphthyridin-4-amine] yielded a solubility at 20 h [2] of 195 µM (≈ 75.5 µg/mL), an IC50 [3] of 0.104 ± 0.009 µM and an IC50 [4] of 0.131 ± 0.089 µM. For the same compound, the IC50 [5] was 47 µM and the IC50 [6] was 0.05 ± 0.025 µM.
`NC1CCN(c2ccnc3ccc(-c4ccc(C(F)(F)F)nc4)nc23)CC1` [Compound 18, 1-[6-[6-(Trifluoromethyl)pyridin-3-yl]-1,5-naphthyridin-4-yl]piperidin-4-amine] gave an IC50 [1] of 137 ± 4 µM, a solubility at 20 h [2] of 160 µM (≈ 59.7 µg/mL) and an IC50 [3] of 0.477 ± 0.034 µM. For the same compound, the IC50 [4] was 0.559 ± 0.03 µM, the IC50 [5] was over 50 µM and the IC50 [6] was 0.42 ± 0.087 µM.
With `CN1CCC(Nc2cc(N)nc3ccc(-c4ccc(C(F)(F)F)nc4)nc23)CC1` [Compound 36, 4-N-(1-Methylpiperidin-4-yl)-6-[6-(trifluoromethyl)pyridin-3-yl]-1,5-naphthyridine-2,4-diamine] the IC50 [1] was 35 µM and < 60 µM, the solubility at 20 h [2] was 180 µM (≈ 72.4 µg/mL) and the IC50 [3] was 0.192 ± 0.007 µM. The IC50 [4] was 9.4 ± 0.849 µM, the IC50 [5] was 26 µM and the IC50 [6] was 0.04 ± 0.011 µM.
`CN1CCC(Nc2ccnc3ccc(-c4cccnc4C(F)(F)F)nc23)CC1` [Compound 30, N-(1-Methylpiperidin-4-yl)-6-[2-(trifluoromethyl)pyridin-3-yl]-1,5-naphthyridin-4-amine] gave an IC50 [1] of 75 ± 6 µM, a solubility at 20 h [2] of 200 µM (≈ 77.5 µg/mL) and an IC50 [3] of 0.3 ± 0.011 µM. It also gave an IC50 [4] of 0.17 ± 0.038 µM, an IC50 [5] of over 50 µM and an IC50 [6] of 0.27 ± 0.096 µM.
For `CNC(=O)c1ccc(-c2ccc3nccc(NC4CCN(C)CC4)c3n2)cn1` [Compound 33, N-Methyl-5-[8-[(1-methylpiperidin-4-yl)amino]-1,5-naphthyridin-2-yl]pyridine-2-carboxamide], the IC50 [1] was 131 ± 6 µM, the IC50 [3] was over 6 µM and the IC50 [4] was 0.077 ± 0.048 µM. It also gave an IC50 [5] of 25 µM and an IC50 [6] of 0.4 ± 0.001 µM.
Compound `N[C@@H]1CCN(c2ccnc3ccc(-c4ccc(C(F)(F)F)nc4)nc23)C1` [Compound 13, (3R)-1-[6-[6-(Trifluoromethyl)pyridin-3-yl]-1,5-naphthyridin-4-yl]pyrrolidin-3-amine] has a solubility at 20 h [2] of 135 µM (≈ 48.5 µg/mL), an IC50 [3] of 0.11 ± 0.013 µM and an IC50 [4] of 1.2 ± 0.481 µM. For the same compound, the IC50 [5] was 20 µM and the IC50 [6] was 0.06 ± 0.008 µM.
Compound `CN1CCC(Nc2ccnc3ccc(-c4cccnc4)nc23)CC1` [Compound 29, N-(1-Methylpiperidin-4-yl)-6-pyridin-3-yl-1,5-naphthyridin-4-amine] has a solubility at 20 h [2] of 195 µM (≈ 62.3 µg/mL), an IC50 [3] of 1.28 ± 0.148 µM and an IC50 [4] of 0.064 ± 0.014 µM. The IC50 [5] was over 50 µM and the IC50 [6] was 0.526 ± 0.047 µM.
In the case of `FC(F)(F)c1ccc(-c2ccc3nccc(NCC4CCNCC4)c3n2)cn1` [Compound 20, N-(Piperidin-4-ylmethyl)-6-[6-(trifluoromethyl)pyridin-3-yl]-1,5-naphthyridin-4-amine], the IC50 [1] is reported as 37 µM and < 60 µM, the solubility at 20 h [2] is reported as 190 µM (≈ 73.6 µg/mL) and the IC50 [3] is reported as 0.35 ± 0.004 µM. For the same compound, the IC50 [4] was 1.51 ± 0.643 µM, the IC50 [5] was over 50 µM and the IC50 [6] was 0.065 ± 0.002 µM.
